In patent US11970497B2, “Tricyclic AKR1C3 dependent KARS inhibitors” (Novartis AG, priority 2019, dated 2024):

Tests used:
Experiment in all cases: Expanded lung cancer cell line proliferation assay
Type in all cases: cell-based
NCI-H1650 = conditions: Homo sapiens; NCI-H1650, 72 h, average of PrestoBlue and Cell Titer Glo; AKR1C3 1.3 TPM; read-out: Absolute Qualified AC50
Excerpt: (§1) Cellular Proliferation Assay to Assess Compound Activity in an Expanded Panel of 57 NRF2 Pathway Mutant and Wild Type Lung Cancer Cell Lines.
(§2) Both the PrestoBlue Cell Viability Reagent and Cell Titer Glo were multiplexed together as the final assay readout. PrestoBlue is a cell permeable resazurin-based solution that utilizes the reducing power of living cells to quantitatively measure their proliferation. Cell Titer Glo measures the amount of ATP present, an indicator of metabolically active cells.
(§3) Expanded Lung Cancer Cell Line Proliferation Assay Outline, Analysis and Profiling Results
(§4) Cells were seeded into 384 well assay plates (Greiner Bio-One, Catalog #781080) using the Thermo Scientific Matrix WellMate microplate dispenser and Thermo Scientific Matrix WellMate small bore disposable tubing cartridges (Catalog #201-30002) in 30 μl of growth media (RPMI-1640 supplemented with 10% fetal bovine serum and 1% penicillin/streptomycin) per well (1000 to 2000 cells/well depending on doubling time). Following cell plating, assay plates were placed into tissue culture incubator at 37° C./5% CO2 overnight. The next day one assay plate for each cell line was used for a Day 0 Cell Titer Glo and PrestoBlue readout. 3 μl of PrestoBlue Cell Viability Reagent (Thermo Scientific, Catalog #A13262) was added to each well and then assay plates were incubated at 37° C./5% CO2 for 30 minutes prior to fluorescence readout on the EnVision 2105 multimode plate reader (Perkin Elmer). Following the PrestoBlue readout 18 μl of Cell Titer Glo (Promega, Catalog #G7572) was then added to each well, allowing plates to incubate at room temperature for 10 minutes prior to luminescence readout on the EnVision. Compound was then added to the remaining assay plates (each cell line run in triplicates) using the Labcyte Inc Echo 555 acoustic liquid handler. Compounds were arrayed into a Labcyte Inc Echo qualified 384 well LDV microplate (Cat #LP-0200-GNF10). Compounds were serially diluted 1:3.16 to generate an 8 point dose response for a final top concentration of 1 μM. DMSO (0.3%) was used as the neutral control (NC) and MG132 (30 μM) was used as the active control (AC). 90 nl of compounds were added to 30 μl of cells using the Labcyte Inc Echo 555 acoustic liquid handler for a final DMSO assay concentration of 0.3%. Following compound addition, assay plates were spun down in a tabletop centrifuge at 500 rpm for 1 minute and then placed into tissue culture incubator at 37° C./5% CO2 for 72 h. Following the 72 h incubation, all assay plates were readout using PrestoBlue and Cell Titer Glo using the same conditions previously described for the Day 0 readout. The Day 0 readout (untreated cells) was used to compare to the 72 h DMSO treated samples on each assay plate as a way of tracking each cell line's fold growth. NC1 control based normalization was used for data analysis in Helios, which incorporates the DMSO neutral control (NC) and MG132 active control (AC) for generating dose response curves that are then used to calculate the Absolute Qualified AC50 calls for each compound and cell line.
(§5) NC1 normalization calculation model: NC1: xn=±(x−NC)/(AC−NC)
(§6) +/− is set by the inhibition type parameter setting where NC and AC are averages (mean or median) over the corresponding NC and AC well values. The Qualified Absolute AC50 values for Compound 36 and Compound 40 are listed in the table below and are represented as the average activity in both the PrestoBlue and Cell Titer Glo assay readouts.
(§7) Absolute Qualified AC50 Values Listed Below are a Representation of Each Compounds' Average Activity in Both the PrestoBlue and Cell Titer Glo Assay Readouts.

NCI-H1373 = conditions: Homo sapiens; NCI-H1373, 72 h, average of PrestoBlue and Cell Titer Glo; AKR1C3 8 TPM; read-out: Absolute Qualified AC50
Excerpt: as §1, §2, §3, §4, §5, §6, §7

NCI-H1437 = conditions: Homo sapiens; NCI-H1437, 72 h, average of PrestoBlue and Cell Titer Glo; AKR1C3 2720.8 TPM; read-out: Absolute Qualified AC50
Excerpt: as §1, §2, §3, §4, §5, §6, §7

RERF-LC-AI = conditions: 72 h, average of PrestoBlue and Cell Titer Glo, AKR1C3 7.6 TPM, read-out: Absolute Qualified AC50
Excerpt: as §1, §2, §3, §4, §5, §6, §7

PC-14 = conditions: Homo sapiens; PC-14, 72 h, average of PrestoBlue and Cell Titer Glo; AKR1C3 1466.3 TPM; read-out: Absolute Qualified AC50
Excerpt: as §1, §2, §3, §4, §5, §6, §7

LCLC-97TM1 = conditions: Homo sapiens; LCLC-97TM1, 72 h, average of PrestoBlue and Cell Titer Glo; AKR1C3 1.9 TPM; read-out: Absolute Qualified AC50
Excerpt: as §1, §2, §3, §4, §5, §6, §7

CORL-279 = conditions: Homo sapiens, COR-L279; CORL-279, 72 h, average of PrestoBlue and Cell Titer Glo; AKR1C3 3.6 TPM; read-out: Absolute Qualified AC50
Excerpt: as §1, §2, §3, §4, §5, §6, §7

HCC2108 = conditions: HCC2108, 72 h, average of PrestoBlue and Cell Titer Glo; AKR1C3 0.5 TPM; read-out: Absolute Qualified AC50
Excerpt: as §1, §2, §3, §4, §5, §6, §7

HCC78 = conditions: Homo sapiens; HCC78, 72 h, average of PrestoBlue and Cell Titer Glo; AKR1C3 3 TPM; read-out: Absolute Qualified AC50
Excerpt: as §1, §2, §3, §4, §5, §6, §7

EBC-1 = conditions: Homo sapiens; EBC-1, 72 h, average of PrestoBlue and Cell Titer Glo; AKR1C3 92.4 TPM; read-out: Absolute Qualified AC50
Excerpt: as §1, §2, §3, §4, §5, §6, §7

NCI-H1573 = conditions: Homo sapiens; NCI-H1573, 72 h, average of PrestoBlue and Cell Titer Glo; AKR1C3 306.2 TPM; read-out: Absolute Qualified AC50
Excerpt: as §1, §2, §3, §4, §5, §6, §7

NCI-H2172 = conditions: NCI-H2172, 72 h, average of PrestoBlue and Cell Titer Glo; AKR1C3 1522.4 TPM; read-out: Absolute Qualified AC50
Excerpt: as §1, §2, §3, §4, §5, §6, §7

NCI-H1944 = conditions: Homo sapiens; NCI-H1944, 72 h, average of PrestoBlue and Cell Titer Glo; AKR1C3 3164.3 TPM; read-out: Absolute Qualified AC50
Excerpt: as §1, §2, §3, §4, §5, §6, §7

NCI-H661 = conditions: Homo sapiens; NCI-H661, 72 h, average of PrestoBlue and Cell Titer Glo; AKR1C3 3 TPM; read-out: Absolute Qualified AC50
Excerpt: as §1, §2, §3, §4, §5, §6, §7

Row | Structure (SMILES) | AC50 (NCI-H1650) [nM] | AC50 (NCI-H1373) [nM] | AC50 (NCI-H1437) [nM] | AC50 (RERF-LC-AI) [nM] | AC50 (PC-14) [nM] | AC50 (LCLC-97TM1) [nM] | AC50 (CORL-279) [nM] | AC50 (HCC2108) [nM] | AC50 (HCC78) [nM] | AC50 (EBC-1) [nM] | AC50 (NCI-H1573) [nM] | AC50 (NCI-H2172) [nM] | AC50 (NCI-H1944) [nM] | AC50 (NCI-H661) [nM]
1 | CN1c2ccc(F)cc2C(=O)CC12CCN(C(=O)NCc1ccc(F)c(NCCO)c1)CC2 [Example 36, 6′-fluoro-N-(4-fluoro-3-((2-hydroxyethyl)amino)benzyl)-1′-methyl-4′-oxo-3′,4′-dihydro-1′H-spiro[piperidine-4,2′-quinoline]-1-carboxamide] | > 1000 | > 1000 | 257 | > 1000 | 308 | > 1000 | > 1000 | > 1000 | > 1000 | > 1000 | 946 | > 1000 | 275 | > 1000
2 | O=C1CC2(CCN(C(=O)NCc3ccc(F)cc3)CC2)Nc2ccc(F)cc21 [Example 40] | > 1000 | > 1000 | 68 | > 1000 | 92 | > 1000 | > 1000 | > 1000 | > 1000 | > 1000 | 293 | 149 | 52 | > 1000
